Assay results reported in publication PMC4854315, “Discovery of a novel allosteric inhibitor-binding site in ERK5: comparison with the canonical kinase hinge ATP-binding site” (Acta Crystallographica. Section D, Structural Biology, 2016).

Experiments:
Test in all cases: Z'-LYTE kinase panel
Assay type in all cases: biochemical
ABL2 (Arg) = target: T1, ABL2 (Arg) (Homo sapiens, UniProt P42684)
T1 construct: purchased ThermoFisher (SelectScreen, Z'-LYTE)
Procedure: (§1) Compounds 2, 3 and 5 were tested for activity against the 225 kinases in the ThermoFisher standard kinase panel. The standard Z′-LYTE assay protocol (ThermoFisher) was used to measure the percentage inhibition at 10 µM compound concentration (details are provided in the supporting information).

AKT2 (PKB beta) = target: T2, AKT2 (PKB beta) (Homo sapiens, UniProt P31751)
T2 construct: purchased ThermoFisher (SelectScreen, Z'-LYTE)
Procedure: as §1

AKT3 (PKB gamma) = target: T3, AKT3 (PKB gamma) (Homo sapiens, UniProt Q9Y243)
T3 construct: purchased ThermoFisher (SelectScreen, Z'-LYTE)
T3 sequence (Q9Y243 whole entry): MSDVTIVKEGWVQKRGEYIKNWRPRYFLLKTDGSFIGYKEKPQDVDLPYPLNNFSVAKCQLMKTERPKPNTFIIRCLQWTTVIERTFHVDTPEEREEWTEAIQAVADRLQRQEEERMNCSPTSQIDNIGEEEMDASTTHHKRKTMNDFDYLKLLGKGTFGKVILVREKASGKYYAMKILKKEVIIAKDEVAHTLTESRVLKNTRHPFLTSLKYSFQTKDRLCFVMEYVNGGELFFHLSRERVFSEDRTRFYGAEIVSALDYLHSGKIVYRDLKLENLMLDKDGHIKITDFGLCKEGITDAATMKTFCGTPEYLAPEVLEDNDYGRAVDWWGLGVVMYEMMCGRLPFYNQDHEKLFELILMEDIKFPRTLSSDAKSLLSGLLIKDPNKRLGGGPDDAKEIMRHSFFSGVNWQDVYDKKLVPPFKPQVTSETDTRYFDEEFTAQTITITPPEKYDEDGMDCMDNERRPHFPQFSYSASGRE
Procedure: as §1

AMPK A2/B1/G1 = target: T4, AMPK A2/B1/G1 (Homo sapiens, UniProt P54646)
T4 construct: purchased ThermoFisher (SelectScreen, Z'-LYTE)
Procedure: as §1

CAMK2A (CaMKII alpha) = target: T5, CAMK2A (CaMKII alpha) (Homo sapiens, UniProt Q9UQM7)
T5 construct: purchased ThermoFisher (SelectScreen, Z'-LYTE)
Procedure: as §1

CDK5/p25 = target: T6, CDK5/p25 (Homo sapiens, UniProt Q00535)
T6 construct: purchased ThermoFisher (SelectScreen, Z'-LYTE)
T6 sequence (Q00535 whole entry): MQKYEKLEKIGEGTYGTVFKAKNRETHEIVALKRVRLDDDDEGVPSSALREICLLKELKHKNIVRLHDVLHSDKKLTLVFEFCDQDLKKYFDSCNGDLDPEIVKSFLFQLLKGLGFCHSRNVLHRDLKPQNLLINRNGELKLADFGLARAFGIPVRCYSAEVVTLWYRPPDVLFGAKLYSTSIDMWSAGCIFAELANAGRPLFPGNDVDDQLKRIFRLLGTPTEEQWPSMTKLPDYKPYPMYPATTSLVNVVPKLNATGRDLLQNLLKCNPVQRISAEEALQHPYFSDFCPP
T6 sequence (Q15078 99-307 partner limits assumed): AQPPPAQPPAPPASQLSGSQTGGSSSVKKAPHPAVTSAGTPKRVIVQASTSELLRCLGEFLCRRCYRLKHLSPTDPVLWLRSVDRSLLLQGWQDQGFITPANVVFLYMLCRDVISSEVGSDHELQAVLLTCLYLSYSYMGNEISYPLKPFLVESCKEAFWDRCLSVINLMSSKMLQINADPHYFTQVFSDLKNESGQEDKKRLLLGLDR
Procedure: as §1

CLK1 = target: T7, CLK1 (Homo sapiens, UniProt P49759)
T7 construct: purchased ThermoFisher (SelectScreen, Z'-LYTE)
Procedure: as §1

CSNK1G2 (CK1 gamma 2) = target: T8, CSNK1G2 (CK1 gamma 2) (Homo sapiens, UniProt P78368)
T8 construct: purchased ThermoFisher (SelectScreen, Z'-LYTE)
T8 sequence (P78368 whole entry): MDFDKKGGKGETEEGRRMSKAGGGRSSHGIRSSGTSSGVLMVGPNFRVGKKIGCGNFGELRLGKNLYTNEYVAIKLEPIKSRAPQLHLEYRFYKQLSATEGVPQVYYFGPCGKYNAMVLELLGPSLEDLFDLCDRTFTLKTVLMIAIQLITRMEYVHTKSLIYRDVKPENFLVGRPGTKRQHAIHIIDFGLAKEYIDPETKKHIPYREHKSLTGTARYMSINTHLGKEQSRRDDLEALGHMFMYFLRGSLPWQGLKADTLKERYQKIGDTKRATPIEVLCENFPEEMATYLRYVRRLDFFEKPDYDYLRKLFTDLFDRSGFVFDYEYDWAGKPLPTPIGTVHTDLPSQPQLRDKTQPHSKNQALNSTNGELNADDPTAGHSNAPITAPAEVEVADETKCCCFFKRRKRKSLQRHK
Procedure: as §1

CSNK2A2 (CK2 alpha 2) = target: T9, CSNK2A2 (CK2 alpha 2) (Homo sapiens, UniProt P19784)
T9 construct: purchased ThermoFisher (SelectScreen, Z'-LYTE)
Procedure: as §1

FRK (PTK5) = target: T10, FRK (PTK5) (Homo sapiens, UniProt P42685)
T10 construct: purchased ThermoFisher (SelectScreen, Z'-LYTE)
Procedure: as §1

GSK3B (GSK3 beta) = target: T11, GSK3B (GSK3 beta) (Homo sapiens, UniProt P49841)
T11 construct: purchased ThermoFisher (SelectScreen, Z'-LYTE)
T11 sequence (P49841 whole entry): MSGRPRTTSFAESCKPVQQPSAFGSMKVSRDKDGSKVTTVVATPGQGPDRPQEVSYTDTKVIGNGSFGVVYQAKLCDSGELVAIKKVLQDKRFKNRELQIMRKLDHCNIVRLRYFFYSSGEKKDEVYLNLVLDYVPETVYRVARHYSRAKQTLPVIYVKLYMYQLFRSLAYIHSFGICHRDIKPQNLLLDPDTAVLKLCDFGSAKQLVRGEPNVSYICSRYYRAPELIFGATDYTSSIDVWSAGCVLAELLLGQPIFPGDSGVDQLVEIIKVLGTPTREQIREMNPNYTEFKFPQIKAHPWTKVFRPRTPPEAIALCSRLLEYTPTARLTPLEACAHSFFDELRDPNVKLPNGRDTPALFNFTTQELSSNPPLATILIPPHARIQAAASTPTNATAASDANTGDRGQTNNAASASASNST
Procedure: as §1

IKBKB (IKK beta) = target: T12, IKBKB (IKK beta) (Homo sapiens, UniProt O14920)
T12 construct: purchased ThermoFisher (SelectScreen, Z'-LYTE)
T12 sequence (O14920 1-756): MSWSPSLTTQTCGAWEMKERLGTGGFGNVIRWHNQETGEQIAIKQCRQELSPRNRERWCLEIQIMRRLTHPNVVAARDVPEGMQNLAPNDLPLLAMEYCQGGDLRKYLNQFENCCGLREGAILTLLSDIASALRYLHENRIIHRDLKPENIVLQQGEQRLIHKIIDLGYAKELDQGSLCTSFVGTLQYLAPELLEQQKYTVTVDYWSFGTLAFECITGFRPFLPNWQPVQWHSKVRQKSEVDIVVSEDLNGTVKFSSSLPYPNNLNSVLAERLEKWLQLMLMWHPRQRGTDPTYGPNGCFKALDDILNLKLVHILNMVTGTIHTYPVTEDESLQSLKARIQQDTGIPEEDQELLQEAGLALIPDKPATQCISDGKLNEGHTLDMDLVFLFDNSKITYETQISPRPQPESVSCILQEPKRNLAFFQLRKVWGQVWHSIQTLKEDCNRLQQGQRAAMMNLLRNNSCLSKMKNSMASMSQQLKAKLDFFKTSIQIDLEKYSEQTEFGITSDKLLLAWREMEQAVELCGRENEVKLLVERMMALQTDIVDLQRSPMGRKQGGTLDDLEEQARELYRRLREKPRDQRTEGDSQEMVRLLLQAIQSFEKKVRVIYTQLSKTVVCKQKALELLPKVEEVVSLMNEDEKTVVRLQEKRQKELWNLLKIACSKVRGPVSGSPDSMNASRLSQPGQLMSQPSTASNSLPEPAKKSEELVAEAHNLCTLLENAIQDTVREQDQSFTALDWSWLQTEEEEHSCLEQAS
Procedure: as §1

INSR = target: T13, INSR (Homo sapiens, UniProt P06213)
T13 construct: purchased ThermoFisher (SelectScreen, Z'-LYTE)
T13 sequence (P06213 28-1382): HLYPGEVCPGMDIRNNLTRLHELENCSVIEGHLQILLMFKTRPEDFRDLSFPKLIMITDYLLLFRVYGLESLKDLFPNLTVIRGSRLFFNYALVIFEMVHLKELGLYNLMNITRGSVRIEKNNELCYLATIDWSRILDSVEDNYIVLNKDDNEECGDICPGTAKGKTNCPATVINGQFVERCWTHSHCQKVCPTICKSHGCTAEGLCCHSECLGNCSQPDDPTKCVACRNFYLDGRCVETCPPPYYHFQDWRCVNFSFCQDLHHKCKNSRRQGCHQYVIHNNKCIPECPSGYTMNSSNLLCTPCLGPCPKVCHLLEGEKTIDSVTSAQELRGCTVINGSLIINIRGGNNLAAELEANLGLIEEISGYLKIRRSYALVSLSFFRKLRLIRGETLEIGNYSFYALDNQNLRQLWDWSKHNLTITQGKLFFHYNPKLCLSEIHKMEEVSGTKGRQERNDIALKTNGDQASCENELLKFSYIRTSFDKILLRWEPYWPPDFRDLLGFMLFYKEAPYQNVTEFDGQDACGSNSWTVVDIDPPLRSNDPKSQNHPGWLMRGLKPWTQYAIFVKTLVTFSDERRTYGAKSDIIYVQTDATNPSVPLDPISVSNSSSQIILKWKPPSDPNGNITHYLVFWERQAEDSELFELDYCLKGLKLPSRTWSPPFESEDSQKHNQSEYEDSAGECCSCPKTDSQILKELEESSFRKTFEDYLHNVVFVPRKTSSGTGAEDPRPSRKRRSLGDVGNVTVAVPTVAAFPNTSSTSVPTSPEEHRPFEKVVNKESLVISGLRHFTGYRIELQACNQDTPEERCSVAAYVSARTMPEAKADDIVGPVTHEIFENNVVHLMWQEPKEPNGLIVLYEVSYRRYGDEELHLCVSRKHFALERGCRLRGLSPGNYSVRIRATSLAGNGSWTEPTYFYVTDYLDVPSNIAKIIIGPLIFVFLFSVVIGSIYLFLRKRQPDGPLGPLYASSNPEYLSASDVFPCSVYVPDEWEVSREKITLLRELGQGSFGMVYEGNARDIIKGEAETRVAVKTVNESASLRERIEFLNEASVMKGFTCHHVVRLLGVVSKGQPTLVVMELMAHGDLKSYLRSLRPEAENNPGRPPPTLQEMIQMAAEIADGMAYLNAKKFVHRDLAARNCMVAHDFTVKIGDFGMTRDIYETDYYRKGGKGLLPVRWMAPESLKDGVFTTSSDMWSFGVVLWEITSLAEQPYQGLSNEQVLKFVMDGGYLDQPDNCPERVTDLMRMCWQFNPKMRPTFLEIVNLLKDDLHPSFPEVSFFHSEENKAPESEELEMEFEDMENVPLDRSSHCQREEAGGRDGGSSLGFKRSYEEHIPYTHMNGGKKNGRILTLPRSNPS
Procedure: as §1

LCK = target: T14, LCK (Homo sapiens, UniProt P06239)
T14 construct: purchased ThermoFisher (SelectScreen, Z'-LYTE)
Procedure: as §1

MAP4K4 (HGK) = target: T15, MAP4K4 (HGK) (Homo sapiens, UniProt O95819)
T15 construct: purchased ThermoFisher (SelectScreen, Z'-LYTE)
Procedure: as §1

[1] = target: T16, MAPK14 (p38 alpha) Direct (Homo sapiens, UniProt Q16539)
T16 construct: purchased ThermoFisher (SelectScreen, Z'-LYTE)
Procedure: as §1

MKNK1 (MNK1) = target: T17, MKNK1 (MNK1) (Homo sapiens, UniProt Q9BUB5)
T17 construct: purchased ThermoFisher (SelectScreen, Z'-LYTE)
Procedure: as §1

NEK7 = target: T18, NEK7 (Homo sapiens, UniProt Q8TDX7)
T18 construct: purchased ThermoFisher (SelectScreen, Z'-LYTE)
Procedure: as §1

ROCK2 = target: T19, ROCK2 (Homo sapiens, UniProt O75116)
T19 construct: purchased ThermoFisher (SelectScreen, Z'-LYTE)
T19 sequence (O75116 whole entry): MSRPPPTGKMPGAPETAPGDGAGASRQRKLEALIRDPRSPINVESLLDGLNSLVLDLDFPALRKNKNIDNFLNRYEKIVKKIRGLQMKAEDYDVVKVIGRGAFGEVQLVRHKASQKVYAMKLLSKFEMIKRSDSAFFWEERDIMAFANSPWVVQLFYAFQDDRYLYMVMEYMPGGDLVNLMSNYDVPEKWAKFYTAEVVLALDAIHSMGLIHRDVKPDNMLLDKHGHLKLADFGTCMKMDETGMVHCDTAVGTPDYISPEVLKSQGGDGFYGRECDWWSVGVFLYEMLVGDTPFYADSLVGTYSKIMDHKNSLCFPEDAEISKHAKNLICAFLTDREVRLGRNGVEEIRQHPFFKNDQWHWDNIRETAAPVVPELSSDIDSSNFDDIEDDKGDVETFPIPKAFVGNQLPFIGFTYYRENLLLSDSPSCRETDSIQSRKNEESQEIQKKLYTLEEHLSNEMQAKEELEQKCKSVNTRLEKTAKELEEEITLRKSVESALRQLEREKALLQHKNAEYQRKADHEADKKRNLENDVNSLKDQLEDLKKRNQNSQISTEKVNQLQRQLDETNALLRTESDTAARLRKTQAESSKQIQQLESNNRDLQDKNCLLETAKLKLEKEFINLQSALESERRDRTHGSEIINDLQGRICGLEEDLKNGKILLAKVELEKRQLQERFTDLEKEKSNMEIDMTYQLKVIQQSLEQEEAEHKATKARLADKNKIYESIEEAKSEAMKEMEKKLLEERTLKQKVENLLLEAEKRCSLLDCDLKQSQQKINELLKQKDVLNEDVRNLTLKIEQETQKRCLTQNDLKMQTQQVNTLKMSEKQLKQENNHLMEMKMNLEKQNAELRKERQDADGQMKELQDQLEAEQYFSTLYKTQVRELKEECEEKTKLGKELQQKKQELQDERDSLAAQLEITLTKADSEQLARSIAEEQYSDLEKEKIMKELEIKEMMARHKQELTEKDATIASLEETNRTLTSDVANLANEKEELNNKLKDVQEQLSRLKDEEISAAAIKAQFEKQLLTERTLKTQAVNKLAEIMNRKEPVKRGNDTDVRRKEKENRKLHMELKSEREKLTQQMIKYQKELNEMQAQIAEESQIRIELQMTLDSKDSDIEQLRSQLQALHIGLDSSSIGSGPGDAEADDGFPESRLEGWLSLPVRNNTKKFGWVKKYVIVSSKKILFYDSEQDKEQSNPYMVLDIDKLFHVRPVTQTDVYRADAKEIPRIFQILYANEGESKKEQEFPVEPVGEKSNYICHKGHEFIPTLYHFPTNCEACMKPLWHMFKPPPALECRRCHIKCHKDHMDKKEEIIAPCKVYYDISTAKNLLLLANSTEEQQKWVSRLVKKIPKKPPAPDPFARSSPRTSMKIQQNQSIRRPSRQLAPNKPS
Procedure: as §1

SRMS (Srm) = target: T20, SRMS (Srm) (Homo sapiens, UniProt Q9H3Y6)
T20 construct: purchased ThermoFisher (SelectScreen, Z'-LYTE)
T20 sequence (Q9H3Y6 whole entry): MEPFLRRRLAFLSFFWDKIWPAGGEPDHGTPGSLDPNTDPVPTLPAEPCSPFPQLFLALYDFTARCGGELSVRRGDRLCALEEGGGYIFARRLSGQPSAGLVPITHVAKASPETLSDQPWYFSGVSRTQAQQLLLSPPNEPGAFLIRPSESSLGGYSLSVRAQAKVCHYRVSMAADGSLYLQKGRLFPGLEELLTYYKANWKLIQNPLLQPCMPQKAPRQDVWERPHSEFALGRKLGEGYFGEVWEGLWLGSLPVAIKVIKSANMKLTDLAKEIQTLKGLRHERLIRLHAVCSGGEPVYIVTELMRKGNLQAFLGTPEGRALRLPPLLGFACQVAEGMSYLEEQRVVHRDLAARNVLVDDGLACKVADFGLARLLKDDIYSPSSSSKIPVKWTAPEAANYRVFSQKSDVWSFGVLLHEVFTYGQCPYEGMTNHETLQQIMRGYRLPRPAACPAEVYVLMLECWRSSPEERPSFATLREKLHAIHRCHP
Procedure: as §1

SYK = target: T21, SYK (Homo sapiens, UniProt P43405); conditions: 10 µM compound, ATP Km app
T21 construct: purchased ThermoFisher (SelectScreen, Z'-LYTE)
Procedure: as §1

XMD8-92 [Compound 2, reference compound]
ABL2 (Arg) % Inhibition (ABL2 (Arg); 10 µM compound, ATP Km app): 21% | AKT2 (PKB beta) % Inhibition (AKT2 (PKB beta); 10 µM compound, ATP Km app): 98% | AKT3 (PKB gamma) % Inhibition (AKT3 (PKB gamma); 10 µM compound, ATP Km app): 72% | AMPK A2/B1/G1 % Inhibition (AMPK A2/B1/G1; 10 µM compound, ATP Km app): 58% | CAMK2A (CaMKII alpha) % Inhibition (CAMK2A (CaMKII alpha); 10 µM compound, ATP Km app): 59% | CDK5/p25 % Inhibition (CDK5/p25; 10 µM compound, ATP Km app): 38% | CLK1 % Inhibition (CLK1; 10 µM compound, ATP Km app): 6% | CSNK1G2 (CK1 gamma 2) % Inhibition (CSNK1G2 (CK1 gamma 2); 10 µM compound, ATP Km app): 11% | CSNK2A2 (CK2 alpha 2) % Inhibition (CSNK2A2 (CK2 alpha 2); 10 µM compound, ATP Km app): -1.72% | FRK (PTK5) % Inhibition (FRK (PTK5); 10 µM compound, ATP Km app): 20% | GSK3B (GSK3 beta) % Inhibition (GSK3B (GSK3 beta); 10 µM compound, ATP Km app): 88% | IKBKB (IKK beta) % Inhibition (IKBKB (IKK beta); 10 µM compound, ATP Km app): 44% | INSR % Inhibition (INSR; 10 µM compound, ATP Km app): 4% | LCK % Inhibition (LCK; 10 µM compound, ATP Km app): 15% | MAP4K4 (HGK) % Inhibition (MAP4K4 (HGK); 10 µM compound, ATP Km app): 84% | MAPK14 (p38 alpha) Direct % Inhibition ([1]; 10 µM compound, ATP Km app): 8% | MKNK1 (MNK1) % Inhibition (MKNK1 (MNK1); 10 µM compound, ATP Km app): 3.65% | NEK7 % Inhibition (NEK7; 10 µM compound, ATP Km app): 11% | ROCK2 % Inhibition (ROCK2; 10 µM compound, ATP Km app): 93% | SRMS (Srm) % Inhibition (SRMS (Srm); 10 µM compound, ATP Km app): 21% | SYK % Inhibition (SYK): 22%

Cc1ncc(-c2nc(Nc3ccc(C(=O)NCCN4CCCCC4)cc3)ncc2F)n1C(C)C [Compound 3]
inhibition at 10 µM (ABL2 (Arg)): 75% | inhibition at 10 µM (AKT2 (PKB beta)): 7% | inhibition at 10 µM (AKT3 (PKB gamma)): 43% | inhibition at 10 µM (AMPK A2/B1/G1): 94% | inhibition at 10 µM (CAMK2A (CaMKII alpha)): 89% | inhibition at 10 µM (CDK5/p25): 99% | inhibition at 10 µM (CLK1): 101% | inhibition at 10 µM (CSNK1G2 (CK1 gamma 2)): 93% | inhibition at 10 µM (CSNK2A2 (CK2 alpha 2)): 77% | inhibition at 10 µM (FRK (PTK5)): 68% | inhibition at 10 µM (GSK3B (GSK3 beta)): 101% | inhibition at 10 µM (IKBKB (IKK beta)): 33% | inhibition at 10 µM (INSR): 69% | inhibition at 10 µM (LCK): 94% | inhibition at 10 µM (MAP4K4 (HGK)): 84% | inhibition at 10 µM [1]: 9% | inhibition at 10 µM (MKNK1 (MNK1)): 68% | inhibition at 10 µM (NEK7): 10% | inhibition at 10 µM (ROCK2): 40% | inhibition at 10 µM (SRMS (Srm)): 20% | inhibition at 10 µM (SYK): 90%

Cc1cc(Nc2nc(N)nn2C(=O)NC(C)C)ccc1Cl [Compound 5]
inhibition at 10 µM (ABL2 (Arg)): 52% | inhibition at 10 µM (AKT2 (PKB beta)): -0.29% | inhibition at 10 µM (AKT3 (PKB gamma)): 2% | inhibition at 10 µM (AMPK A2/B1/G1): 29% | inhibition at 10 µM (CAMK2A (CaMKII alpha)): -10% | inhibition at 10 µM (CDK5/p25): 77% | inhibition at 10 µM (CLK1): 10% | inhibition at 10 µM (CSNK1G2 (CK1 gamma 2)): 10% | inhibition at 10 µM (CSNK2A2 (CK2 alpha 2)): 1.46% | inhibition at 10 µM (FRK (PTK5)): 21% | inhibition at 10 µM (GSK3B (GSK3 beta)): 79% | inhibition at 10 µM (IKBKB (IKK beta)): 3.42% | inhibition at 10 µM (INSR): 5.44% | inhibition at 10 µM (LCK): 29% | inhibition at 10 µM (MAP4K4 (HGK)): -6% | inhibition at 10 µM [1]: 9% | inhibition at 10 µM (MKNK1 (MNK1)): 7% | inhibition at 10 µM (NEK7): -0.441% | inhibition at 10 µM (ROCK2): 37% | inhibition at 10 µM (SRMS (Srm)): 2.26% | inhibition at 10 µM (SYK): > 80% | SYK % Inhibition (SYK; listed as SN1109056190, 10 µM): 85%
